From patent US20260138976A1 (Hoffmann-La Roche Inc., priority 2022, published 2026)
pEC50: −log10 of the molar value.

Test system: primary human T-cells
Assay: Proliferation assay (5 days, CellTiter-Glo, CD3-stimulated T-cells)
Type: cell-based
Settings: for Emax proliferation (% activation): CD3 condition, normalised to DMSO (neutral) and 20 μM reference compound A1 = 100%; for pEC50: Homo sapiens, T-cell, 120 h, CD3-stimulated primary human T-cells, 5 days, CellTiter-Glo, fitted sigmoidal curve, read-out: Tcell Proliferation CD3 EC50
Summary of the method: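 Expanded primary human T-cells, 100 k cells/well, were stimulated with plate-coated CD3 antibody (donor-titrated) and given compound in a 5 or 6 pt dose response from 20 μM or 10 μM final top, 0.2% DMSO final. ATP was read by CellTiter-Glo after 5 days. EC50 and Emax were reported as % of 20 μM reference compound A1.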

Row | SMILES | Emax proliferation (% activation) | pEC50
1 | N[C@H]1CS(=O)(=O)c2ccc(-c3nnc(C4(N)CCCCC4)o3)cc2N(Cc2ccc(-c3ccc(C(F)(F)F)cc3)cc2)C1=O [Example 42, (3R)-3-amino-7-[5-(1-aminocyclohexyl)-1,3,4-oxadiazol-2-yl]-1,1-dioxo-5-[[4-[4-(trifluoromethyl)phenyl]phenyl]methyl]-2,3-dihydro-1λ^6,5-benzothiazepin-4-one] | 66 % activation | 6.91
2 | COc1ccc(-c2ccc(CN3C(=O)[C@@H](N)CS(=O)(=O)c4ccc(-c5nnc(C6(N)CCCCC6)o5)cc43)cc2)cc1 [Example 43, (3R)-3-amino-7-[5-(1-aminocyclohexyl)-1,3,4-oxadiazol-2-yl]-5-[[4-(4-methoxyphenyl)phenyl]methyl]-1,1-dioxo-2,3-dihydro-1λ^6,5-benzothiazepin-4-one] | 64 % activation | 6.55
3 | COc1ccc(-c2ccc(CN3C(=O)[C@@H](N)CS(=O)(=O)c4ccc(-c5nnc(C6(F)CCCN(C)C6)o5)cc43)cc2)cc1 (stereo partly drawn) [Example 50, (3R)-3-amino-7-[5-(3-fluoro-1-methyl-3-piperidyl)-1,3,4-oxadiazol-2-yl]-5-[[4-(4-methoxyphenyl)phenyl]methyl]-1,1-dioxo-2,3-dihydro-1λ^6,5-benzothiazepin-4-one] | 219 % activation | 5.99
4 | CN1CCCC(F)(c2nnc(-c3ccc4c(c3)N(Cc3ccc(-c5ccc(C(F)(F)F)cn5)cc3)C(=O)[C@@H](N)CS4(=O)=O)o2)C1 (stereo partly drawn) [Example 51, (3R)-3-amino-7-[5-(3-fluoro-1-methyl-3-piperidyl)-1,3,4-oxadiazol-2-yl]-1,1-dioxo-5-[[4-[5-(trifluoromethyl)-2-pyridyl]phenyl]methyl]-2,3-dihydro-1λ^6,5-benzothiazepin-4-one] | 112 % activation | 6.05
5 | N[C@H]1CS(=O)(=O)c2ccc(-c3nnc(C4(CO)CCCO4)o3)cc2N(Cc2ccc(-c3noc(C(F)(F)F)n3)cc2)C1=O (stereo partly drawn) [Example 54, (3R)-3-amino-7-[5-[2-(hydroxymethyl)tetrahydrofuran-2-yl]-1,3,4-oxadiazol-2-yl]-1,1-dioxo-5-[[4-[5-(trifluoromethyl)-1,2,4-oxadiazol-3-yl]phenyl]methyl]-2,3-dihydro-1λ^6,5-benzothiazepin-4-one] | 94 % activation | 6.05
6 | COC(=O)N1CC(c2nnc(-c3ccc4c(c3)N(Cc3ccc(-c5noc(C(C)(C)C)n5)cc3)C(=O)[C@@H](N)CS4(=O)=O)o2)CC(F)(F)C1 (stereo partly drawn) [Example 56, methyl 3,3-difluoro-5-[5-[(3R)-3-amino-5-[[4-(5-tert-butyl-1,2,4-oxadiazol-3-yl)phenyl]methyl]-1,1,4-trioxo-2,3-dihydro-1λ^6,5-benzothiazepin-7-yl]-1,3,4-oxadiazol-2-yl]piperidine-1-carboxylate] | 425 % activation | 5.66
7 | COC(=O)N1CC(c2nnc(-c3ccc4c(c3)N(Cc3ccc(-c5ccc(C(F)(F)F)cc5)nc3)C(=O)[C@@H](N)CS4(=O)=O)o2)CC(F)(F)C1 (stereo partly drawn) [Example 57, methyl 3,3-difluoro-5-[5-[(3R)-3-amino-1,1,4-trioxo-5-[[6-[4-(trifluoromethyl)phenyl]-3-pyridyl]methyl]-2,3-dihydro-1λ^6,5-benzothiazepin-7-yl]-1,3,4-oxadiazol-2-yl]piperidine-1-carboxylate] | 181 % activation | 6.25
8 | COC(=O)N1CC2CC(c3nnc(-c4ccc5c(c4)N(Cc4ccc(-c6ccc(C(F)(F)F)cc6)nc4)C(=O)[C@@H](N)CS5(=O)=O)o3)(C2)C1 [Example 58, methyl 1-[5-[(3R)-3-amino-1,1,4-trioxo-5-[[6-[4-(trifluoromethyl)phenyl]-3-pyridyl]methyl]-2,3-dihydro-1λ^6,5-benzothiazepin-7-yl]-1,3,4-oxadiazol-2-yl]-3-azabicyclo[3.1.1]heptane-3-carboxylate] | 114 % activation | 6.27
9 | N#CC1(c2nnc(-c3ccc4c(c3)N(Cc3ccc(-c5ccc(C(F)(F)F)cn5)cc3)C(=O)[C@@H](N)CS4(=O)=O)o2)CC1 [Example 62, 1-[5-[(3R)-3-amino-1,1,4-trioxo-5-[[4-[5-(trifluoromethyl)-2-pyridyl]phenyl]methyl]-2,3-dihydro-1λ^6,5-benzothiazepin-7-yl]-1,3,4-oxadiazol-2-yl]cyclopropane-carbonitrile] | 101 % activation | 5.81
10 | CCOC(F)(c1nnc(-c2ccc3c(c2)N(Cc2ccc(-c4noc(C(F)(F)F)n4)cc2)C(=O)[C@@H](N)CS3(=O)=O)o1)C(F)(F)F (stereo partly drawn) [Example 64, (3R)-3-amino-7-[5-(1-ethoxy-1,2,2,2-tetrafluoro-ethyl)-1,3,4-oxadiazol-2-yl]-1,1-dioxo-5-[[4-[5-(trifluoromethyl)-1,2,4-oxadiazol-3-yl]phenyl]methyl]-2,3-dihydro-1λ^6,5-benzothiazepin-4-one] | 132 % activation | 7.68
11 | N[C@H]1CS(=O)(=O)c2ccc(-c3nnc(N4CCC(F)(F)CC4)o3)cc2N(Cc2ccc(-c3noc(C(F)(F)F)n3)cc2)C1=O [Example 68, (3R)-3-amino-7-[5-(4,4-difluoro-1-piperidyl)-1,3,4-oxadiazol-2-yl]-1,1-dioxo-5-[[4-[5-(trifluoromethyl)-1,2,4-oxadiazol-3-yl]phenyl]methyl]-2,3-dihydro-1λ^6,5-benzothiazepin-4-one] | 104 % activation | 7.58
12 | N[C@H]1CS(=O)(=O)c2ccc(-c3nnc(N4CCOC(F)(F)C4)o3)cc2N(Cc2ccc(-c3nnc(C(F)(F)F)o3)cc2)C1=O [Example 80] | 130 % activation | 6.40
13 | CC(C)(C)c1nnc(-c2ccc3c(c2)N(Cc2ccc(-n4nnc(C(F)(F)F)n4)cc2)C(=O)[C@@H](N)CS3(=O)=O)o1 [Example 90, (3R)-3-amino-7-(5-tert-butyl-1,3,4-oxadiazol-2-yl)-1,1-dioxo-5-[[4-[5-(trifluoromethyl)tetrazol-2-yl]phenyl]methyl]-2,3-dihydro-1λ^6,5-benzothiazepin-4-one] | 152 % activation | 6.46
14 | Cn1nc(C(F)(F)F)cc1-c1ccc(CN2C(=O)[C@@H](N)CS(=O)(=O)c3ccc(-c4nnc(C(C)(C)C)o4)cc32)cc1 [Example 92] | 170 % activation | 6.08
15 | CC(C)(C)c1nnc(-c2ccc3c(c2)N(Cc2ccc(-c4ncc(C(F)(F)F)o4)cc2)C(=O)[C@@H](N)CS3(=O)=O)o1 [Example 93, (3R)-3-amino-7-(5-tert-butyl-1,3,4-oxadiazol-2-yl)-1,1-dioxo-5-[[4-[5-(trifluoromethyl)oxazol-2-yl]phenyl]methyl]-2,3-dihydro-1λ^6,5-benzothiazepin-4-one] | 104 % activation | 6.92
16 | NC(c1nnc(-c2ccc3c(c2)N(Cc2ccc(-c4noc(C(F)(F)F)n4)cc2)C(=O)[C@@H](N)CS3(=O)=O)o1)C(F)(F)F (stereo partly shown) [Example 94] | 42 % activation | < 5.00
17 | CCC(O)(c1nnc(-c2ccc3c(c2)N(Cc2ccc(-c4noc(C(F)(F)F)n4)cc2)C(=O)[C@@H](N)CS3(=O)=O)o1)C(F)(F)F (stereo partly shown) [Example 95] | 104 % activation | 5.79
18 | CC(C)(C#N)c1nnc(-c2ccc3c(c2)N(Cc2ccc(-c4cnc(C(F)(F)F)nc4)cc2)C(=O)[C@@H](N)CS3(=O)=O)o1 [Example 100] | 96 % activation | 5.72
19 | CC(C)(C#N)c1nnc(-c2ccc3c(c2)N(Cc2ccc(-c4noc(C5CCC(F)(F)CC5)n4)cc2)C(=O)[C@@H](N)CS3(=O)=O)o1 [Example 101, 2-[5-[(3R)-3-amino-5-[[4-[5-(4,4-difluorocyclohexyl)-1,2,4-oxadiazol-3-yl]phenyl]methyl]-1,1,4-trioxo-2,3-dihydro-1λ^6,5-benzothiazepin-7-yl]-1,3,4-oxadiazol-2-yl]-2-methyl-propanenitrile] | 175 % activation | 6.26
20 | CC(C)(C#N)c1nnc(-c2ccc3c(c2)N(Cc2ccc(-n4cc(C(F)(F)F)cn4)cc2)C(=O)[C@@H](N)CS3(=O)=O)o1 [Example 102, 2-[5-[(3R)-3-amino-1,1,4-trioxo-5-[[4-[4-(trifluoromethyl)pyrazol-1-yl]phenyl]methyl]-2,3-dihydro-1λ^6,5-benzothiazepin-7-yl]-1,3,4-oxadiazol-2-yl]-2-methyl-propanenitrile] | 127 % activation | 6.44
21 | CC(C)(C#N)c1nnc(-c2ccc3c(c2)N(Cc2ccc(-c4ncc(C(F)(F)F)o4)cc2)C(=O)[C@@H](N)CS3(=O)=O)o1 [Example 105, 2-[5-[(3R)-3-amino-1,1,4-trioxo-5-[[4-[5-(trifluoromethyl)oxazol-2-yl]phenyl]methyl]-2,3-dihydro-1λ^6,5-benzothiazepin-7-yl]-1,3,4-oxadiazol-2-yl]-2-methyl-propanenitrile] | 138 % activation | 6.41
22 | CC(C)(C#N)c1nnc(-c2ccc3c(c2)N(Cc2ccc(-c4ccc(C(F)(F)F)cc4)nc2)C(=O)[C@@H](N)CS3(=O)=O)o1 [Example 106] | 79 % activation | 5.42
23 | Cn1nc(C(F)(F)F)cc1-c1ccc(CN2C(=O)[C@@H](N)CS(=O)(=O)c3ccc(-c4nnc(C(C)(C)C#N)o4)cc32)cc1 [Example 107, 2-[5-[(3R)-3-amino-5-[[4-[2-methyl-5-(trifluoromethyl)pyrazol-3-yl]phenyl]methyl]-1,1,4-trioxo-2,3-dihydro-1λ^6,5-benzothiazepin-7-yl]-1,3,4-oxadiazol-2-yl]-2-methyl-propanenitrile] | 165 % activation | 5.66
